What was measured:
S. aureus DSM 20231 = experiment: Bliss interaction score (quartile over a dose matrix) (fitness difference); higher = more antagonism (negative = synergy)
Method in brief: (§1)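 The Bliss score is observed minus expected fitness under the product model, reported as quartiles over technical, biological and donor/recipient replicates. Fitness is the OD595 at entry into stationary phase divided by the plate's robust no-drug mean and capped at 1. Single-drug fitness was inferred from combination data.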

B. subtilis 168 [1] = experiment: as above
Method in brief: as §1

S. aureus Newman = experiment: as above
Method in brief: as §1

S. pneumoniae D39V [2] = experiment: as above
Method in brief: as §1

B. subtilis 168 [3] = experiment: fitness (endpoint OD595 vs no drug) (fraction); higher = more growth
Method in brief: (§2)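 Plates with 384 wells were inoculated at OD595 0.01 using 30 µl of TSB, LB Lennox or CY, or 55 µl for S. pneumoniae. Incubation was at 37 °C, with OD595 measured every 30 min for 14 h. Fitness is the stationary-phase transition optical density over the robust mean of no-drug control wells, after first-reading background subtraction; it is capped at 1.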

S. pneumoniae D39V [4] = experiment: as above
Method in brief: as §2
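For Bliss interaction score (quartile over a dose matrix) in this document: first quartile when negative (synergy) and third quartile when positive (antagonism).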

CNC(C)C1CCC(N)C(OC2C(N)CC(N)C(OC3OCC(C)(O)C(NC)C3O)C2O)O1 (stereo not drawn) [Gentamicin] + COc1cc(Cc2cnc(N)nc2N)cc(OC)c1OC [Trimethoprim]
main component drawn
Settings	Bliss interaction score
B. subtilis 168 [1]	-0.201
S. aureus DSM 20231	-0.0371
S. aureus Newman	0.0637
S. pneumoniae D39V [2]	-0.193

fitness, B. subtilis 168 [3], one replicate, main component drawn
Settings	partner 0.1 µg/mL	partner 0.2 µg/mL	partner 0.4 µg/mL	partner 1 µg/mL	partner 2 µg/mL
first compound 0.0625 µg/mL	0.953	0.787	0.539	0.0449	0.0512
first compound 0.125 µg/mL	0.716	0.294	0.0552	0.0304	0.0461
first compound 0.25 µg/mL	0.0356	0.0576	0.0438	0.0435	0.0503

fitness, B. subtilis 168 [3], main component drawn
Settings	first compound 0.0625 µg/mL	first compound 0.125 µg/mL	first compound 0.25 µg/mL
partner 0.125 µg/mL	0.661	0.548	0.0923
partner 0.25 µg/mL	0.53	–	0.0847
partner 0.5 µg/mL	–	–	0.041

CC1=C(C(=O)O)N2C(=O)[C@@H](NC(=O)[C@H](N)c3ccccc3)[C@H]2SC1 [Cephalexin] + CN(C)C(=O)C(CCN1CCC(O)(c2ccc(Cl)cc2)CC1)(c1ccccc1)c1ccccc1 [Loperamide]
Settings	Bliss interaction score
B. subtilis 168 [1]	-0.0893
S. aureus DSM 20231	0.116
S. aureus Newman	0.0814
S. pneumoniae D39V [2]	-0.129

Settings	fitness
B. subtilis 168 [3], first compound 0.125 µg/mL, partner 25 µg/mL	0.819
B. subtilis 168 [3], first compound 0.125 µg/mL, partner 50 µg/mL	0.0465
B. subtilis 168 [3], first compound 0.125 µg/mL, partner 100 µg/mL	0.0315
B. subtilis 168 [3], first compound 0.25 µg/mL, partner 25 µg/mL	0.803
B. subtilis 168 [3], first compound 0.25 µg/mL, partner 50 µg/mL	0.039
B. subtilis 168 [3], first compound 0.25 µg/mL, partner 100 µg/mL	0.025
B. subtilis 168 [3], first compound 0.5 µg/mL, partner 25 µg/mL	0.712
B. subtilis 168 [3], first compound 0.5 µg/mL, partner 50 µg/mL	0.0372
B. subtilis 168 [3], first compound 0.5 µg/mL, partner 100 µg/mL	0.0277
S. pneumoniae D39V [4], first compound 2 µg/mL, partner 34.28 µg/mL	0.165
S. pneumoniae D39V [4], first compound 4 µg/mL, partner 17.14 µg/mL	0.0474
S. pneumoniae D39V [4], first compound 4 µg/mL, partner 34.28 µg/mL	0.0181

fitness, S. pneumoniae D39V [4], one replicate
Settings	first compound 0.125 µg/mL	first compound 0.25 µg/mL	first compound 0.5 µg/mL	first compound 1 µg/mL	first compound 2 µg/mL	first compound 4 µg/mL
partner 20 µg/mL	≥ 1	≥ 1	≥ 1	–	–	–
partner 40 µg/mL	≥ 1	0.995	0.99	–	–	–
partner 68.57 µg/mL	–	–	–	0.53	0.15	0.0031
partner 80 µg/mL	0.753	0.784	0.612	–	–	–

— the supplement of paper PMC10627819
